# Measured values from publication PMC6934184, “Selective DNA-PKcs inhibition extends the therapeutic index of localized radiotherapy and chemotherapy” (The Journal of Clinical Investigation, 2019).
# Target: T1, NEK4 (Homo sapiens, UniProt P51957)
# T1 construct: purchased Thermo Fisher Scientific (Life Technologies) SelectScreen
# Experiment: SelectScreen Z'LYTE
# Type: biochemical
# Outline: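 NU5455 was profiled across the SelectScreen Broad panel of kinase activity and binding assays. Z'LYTE reactions such as CSF1R ran at apparent Km ATP, while the Adapta CAMK1 assay used ATP listed as 10. Values are given as percent.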
# T1 sequence (P51957 whole entry): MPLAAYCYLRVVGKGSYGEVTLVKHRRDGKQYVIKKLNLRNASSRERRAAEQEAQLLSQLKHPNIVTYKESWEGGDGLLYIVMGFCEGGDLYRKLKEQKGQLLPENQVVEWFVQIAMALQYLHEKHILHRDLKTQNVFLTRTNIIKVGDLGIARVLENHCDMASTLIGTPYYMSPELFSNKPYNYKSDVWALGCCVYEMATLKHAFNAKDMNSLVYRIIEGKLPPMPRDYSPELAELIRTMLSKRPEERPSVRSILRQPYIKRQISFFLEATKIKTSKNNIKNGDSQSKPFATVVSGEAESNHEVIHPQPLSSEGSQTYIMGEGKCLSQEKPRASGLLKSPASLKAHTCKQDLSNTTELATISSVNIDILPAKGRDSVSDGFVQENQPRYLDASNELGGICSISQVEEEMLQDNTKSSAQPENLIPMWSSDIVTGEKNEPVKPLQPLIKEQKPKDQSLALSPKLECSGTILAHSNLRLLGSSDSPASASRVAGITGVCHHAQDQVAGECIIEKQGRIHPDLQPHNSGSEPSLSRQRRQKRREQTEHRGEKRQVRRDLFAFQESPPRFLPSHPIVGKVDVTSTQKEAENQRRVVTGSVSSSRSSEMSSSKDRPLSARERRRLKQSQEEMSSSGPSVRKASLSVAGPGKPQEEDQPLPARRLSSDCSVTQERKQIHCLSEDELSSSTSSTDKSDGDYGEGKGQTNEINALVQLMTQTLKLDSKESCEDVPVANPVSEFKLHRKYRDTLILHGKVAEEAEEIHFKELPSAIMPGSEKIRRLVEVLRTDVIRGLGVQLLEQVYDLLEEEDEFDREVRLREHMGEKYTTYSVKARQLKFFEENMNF
structure (smiles),measurement,value
CN(C(=O)CN1CCOCC1)c1ccc2sc3c(-c4cccc5c(=O)cc(N6CC7CCC(C6)O7)oc45)cccc3c2c1 [NU5455],inhibition at 1 µM,-11.6%
